Counter-ions that a name gives are not always drawn.
Each compound was assayed against T1, hTRPA1 (Homo sapiens, UniProt O75762) (assay: IC50 determination, dose response calcium flux (FLIPR) assay, ChanTest hTRPA1-CHO stably transfected cell line). Conditions: CHO-K1 Tet-On hTRPA1 cells, 30' preincubation, agonist cinnamaldehyde final 100 uM.
T1 construct: host or cells: CHO-K1 Tet-On, Clone 20 (Chinese Hamster Ovary cells, inducible expression)
Assay type: cell-based
Procedure, shortened: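 Doxycycline-induced (1 ug/ml, 24 h) CHO-K1 Tet-On hTRPA1 cells loaded with Cal-3 calcium dye, preincubated 30 min at RT with compound (11-point series from 20 or 30 μM top), then stimulated with cinnamaldehyde (final 100 uM). Peak fluorescence increase over per-well baseline read on FLIPR.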

T1 sequence (O75762 whole entry): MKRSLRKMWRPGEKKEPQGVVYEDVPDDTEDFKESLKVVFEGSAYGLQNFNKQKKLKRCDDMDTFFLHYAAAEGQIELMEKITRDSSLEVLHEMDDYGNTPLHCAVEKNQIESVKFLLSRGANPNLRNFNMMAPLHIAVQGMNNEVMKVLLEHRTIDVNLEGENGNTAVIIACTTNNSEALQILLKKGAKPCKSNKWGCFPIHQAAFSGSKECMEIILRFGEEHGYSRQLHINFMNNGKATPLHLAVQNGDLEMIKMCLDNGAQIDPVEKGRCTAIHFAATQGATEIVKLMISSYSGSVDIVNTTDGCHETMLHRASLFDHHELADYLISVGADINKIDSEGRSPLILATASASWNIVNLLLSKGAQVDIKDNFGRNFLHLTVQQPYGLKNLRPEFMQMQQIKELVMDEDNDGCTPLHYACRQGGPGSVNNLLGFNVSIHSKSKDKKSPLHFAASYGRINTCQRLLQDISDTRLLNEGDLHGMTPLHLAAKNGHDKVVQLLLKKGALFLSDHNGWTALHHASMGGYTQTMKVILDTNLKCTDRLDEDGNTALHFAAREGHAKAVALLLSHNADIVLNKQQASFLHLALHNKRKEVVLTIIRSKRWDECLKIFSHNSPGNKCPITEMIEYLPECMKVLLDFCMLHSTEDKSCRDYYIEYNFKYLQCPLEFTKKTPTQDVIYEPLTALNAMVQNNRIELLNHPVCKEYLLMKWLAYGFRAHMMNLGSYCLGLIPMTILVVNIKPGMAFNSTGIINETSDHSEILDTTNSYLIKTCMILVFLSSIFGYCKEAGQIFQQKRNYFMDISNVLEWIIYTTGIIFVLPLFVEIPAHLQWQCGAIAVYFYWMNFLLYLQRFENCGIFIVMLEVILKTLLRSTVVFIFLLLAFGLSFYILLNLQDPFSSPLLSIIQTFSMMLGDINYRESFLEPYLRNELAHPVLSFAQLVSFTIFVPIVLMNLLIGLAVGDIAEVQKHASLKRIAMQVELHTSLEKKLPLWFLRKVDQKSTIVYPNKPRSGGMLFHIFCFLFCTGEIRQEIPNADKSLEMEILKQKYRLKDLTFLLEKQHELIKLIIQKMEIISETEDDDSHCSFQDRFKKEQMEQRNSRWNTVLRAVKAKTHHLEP

Point of comparison: `N#CC1CCCN(CC(OC(=O)Nc2ccc(Cl)cc2)C(F)(F)F)C1` (stereo not drawn) [Example 13, (4-Chlorophenyl)-carbamic acid 1-(3-cyanopiperidin-1-ylmethyl)-2,2,2-trifluoroethyl ester], IC50 277 nM. Against it:
- O=C(Nc1ccc(Cl)cc1)O[C@@H](CN1CCCC(Sc2ccccc2)C1)C(F)(F)F (stereo partly drawn) [Example 44, (4-Chlorophenyl)-carbamic acid (S)-2,2,2-trifluoro-1-(3-phenylsulfanyl-piperidin-1-ylmethyl)-ethyl ester hydrochloride] — 1.6-fold lower, 172 nM
- O=C(Nc1ccc(Cl)cc1)O[C@@H](CN1CCCC(c2cccc(C(F)(F)F)c2)C1)C(F)(F)F (stereo partly drawn) [Example 29, (4-Chlorophenyl)-carbamic acid (S)-2,2,2-trifluoro-1-[3-(3-trifluoromethylphenyl)-piperidin-1-ylmethyl]-ethyl ester hydrochloride] — 7.8-fold lower, 35.4 nM
- COC1CCCN(CC(OC(=O)Nc2ccc(Cl)cc2)C(F)(F)F)C1 (stereo not drawn) [Example 16, (4-Chlorophenyl)-carbamic acid 2,2,2-trifluoro-1-(3-methoxypiperidin-1-ylmethyl)-ethyl ester] — 15-fold higher, 4160 nM
- O=C(Nc1ccc(Cl)cc1)O[C@@H](CN1CCC[C@H](Oc2ccc(Cl)cc2)C1)C(F)(F)F [Example 52a, (4-Chlorophenyl)-carbamic acid (S)-1-[(S)-3-(4-chlorophenoxy)-piperidin-1-ylmethyl]-2,2,2-trifluoroethyl ester hydrochloride] — 2.4-fold lower, 114 nM
- O=C(Nc1ccc(Cl)cc1)O[C@@H](CN1CCC[C@H](c2cccc(C(F)(F)F)c2)C1)C(F)(F)F (single isomer, unassigned) [Example 30, hydrochloride] — 27-fold lower, 10.4 nM
- O=C(Nc1ccc(Cl)cc1)O[C@@H](CN1CCCC(c2ccccn2)C1)C(F)(F)F (stereo partly drawn) [Example 53, (4-Chlorophenyl)-carbamic acid (S)-2,2,2-trifluoro-1-(3′,4′,5′,6′-tetrahydro-2′H-[2,3′]bipyridinyl-1′-ylmethyl)-ethyl ester hydrochloride] — 6.9-fold higher, 1920 nM
- O=C(Nc1ccc(Cl)cc1)O[C@@H](CN1CCCC(OCc2cccnc2)C1)C(F)(F)F (stereo partly drawn) [Example 55, (4-Chlorophenyl)-carbamic acid (S)-2,2,2-trifluoro-1-[3-(pyridin-3-ylmethoxy)-piperidin-1-ylmethyl]-ethyl ester hydrochloride] — 2.9-fold higher, 803 nM
- O=C(Nc1ccc(Cl)cc1)O[C@@H](CN1CCCC(C(=O)c2ccccc2)C1)C(F)(F)F (stereo partly drawn) [Example 39, (4-Chlorophenyl)-carbamic acid (S)-1-(3-benzoylpiperidin-1-ylmethyl)-2,2,2-trifluoroethyl ester hydrochloride] — 3.1-fold higher, 865 nM

From patent US20150218141A1, “SUBSTITUTED CARBAMATE COMPOUNDS” (HOFFMANN-LA ROCHE INC, priority 2012, published 2015)
